Assay results published in patent US20140162290A1, “PROBE FOR DETECTING DEAD CELL” (RIKEN, priority 2012, published 2014).

Experiments:
[1] = target: T1, human Tim4 IgG Fc fusion protein, modified type hTim4-175-Fc, SEQ ID NO: 67 (Homo sapiens, UniProt Q96H15); test: Dot blotting, binding of hTim4-175-Fc to PS; settings: 0.15 μg of PS spotted; fusion protein 0.5 μg/mL, 4° C. overnight
T1 construct: replaced N-terminal leader; Freestyle 293F, purified
Method: (§1) Dot blotting was carried out by the following procedure to evaluate the binding capacity of each fusion protein (hTim4-Fc) prepared as described above to PS. On a PVDF membrane (GE Healthcare) with a size of 10 mm×10 mm, 0.15 μg of PS was spotted, and the resulting membrane was incubated in 500 μL of a blocking buffer (5% skim milk—PBS-T) in a 24-well plate at room temperature for 1 hour, to perform blocking. To the blocking buffer in the well, each fusion protein was added at a final concentration of 0.5 μg/mL, and incubation was carried out at 4° C. overnight. A control was provided by use of only the blocking buffer. Thereafter, the PVDF membrane was washed 5 times with 2 mL of PBS-T, and incubated at room temperature for 2 hours in an HRP-conjugated anti-human IgG-Fc antibody (Bethyl) solution which was 10000-fold diluted with 500 μL of the blocking buffer. Subsequently, the membrane was washed 5 times with 2 mL of PBS-T, followed by chemiluminescence using ECL prime (GE healthcare) and detection using LAS 3000 (Fujifilm).

[2] = target: T2, human Tim4 IgG Fc fusion protein, modified type hTim4-181-Fc, SEQ ID NO: 63 (Homo sapiens, UniProt Q96H15); test: Dot blotting, binding of hTim4-181-Fc to PS; settings: 0.15 μg of PS spotted; fusion protein 0.5 μg/mL, 4° C. overnight
T2 construct: replaced N-terminal leader; Freestyle 293F, purified
Method: as §1

[3] = target: T3, human Tim4 IgG Fc fusion protein, modified type hTim4-178-Fc (49 mucin domain residues), SEQ ID NO: 65 (Homo sapiens, UniProt Q96H15); test: ELISA, binding capacity of hTim4-178-Fc to PS; settings: n = 2
T3 construct: made in house; host or cells: Freestyle 293F cells
Text: (§2) Using the primers shown in Table 4 and PrimeSTAR Mutagenesis Basal Kit (Takara Bio Inc.), vectors encoding fusion proteins having mucin domains with various lengths, in which the C-terminus and/or the N-terminus of the wild-type mucin domain was/were deleted. More specifically, phTim4-Fc was used as a template to prepare phTim4-240-Fc and phTim4-187-Fc; the obtained phTim4-187-Fc was used as a template to prepare phTim4-184-Fc, phTim4-181-Fc, phTim4-178-Fc, phTim4-175-Fc, phTim4-162-Fc, phTim4-149-Fc, phTim4-135-Fc, phTim4-130-Fc and phTim4-Δ131-187-Fc; the obtained phTim4-240-Fc was used as a template to prepare phTim4-Δ131-240-Fc; and the obtained phTim4-Δ131-187-Fc was used as a template to prepare phTim4-Δ131-187Δ241-310-Fc. […]
(§3) The obtained vector of 37.5 μg was transfected into 30 mL of 1×10^6 cells/mL Freestyle 293F cells (Life technologies) using Freestyle MAX Reagent (Life technologies), and the cells were cultured with shaking at 37° C. under 8% CO2 for 4 days. […] The purified protein was subjected to SDS-PAGE, and the molecular weight under non-reducing conditions was calculated (Table 6). […]
(§4) Into a 96-well plate, 100 μL of PS (0.5 mg/mL) or a solvent (methanol) was placed, and dried. […] An HRP-conjugated anti-human IgG-Fc antibody was used as a secondary antibody, and the absorbance due to coloring with TMB was measured using a microplate reader. […]

[4] = target: T4, human Tim4 IgG Fc fusion protein, modified type hTim4-Δ131-240-Fc (55 mucin domain residues), SEQ ID NO: 55 (Homo sapiens, UniProt Q96H15, DEL135-260); test: ELISA, binding capacity of hTim4-Δ131-240-Fc to PS; settings: n = 2
T4 construct: made in house; host or cells: Freestyle 293F cells
Text: as §2, §3, §4

[5] = target: T5, human Tim4 IgG Fc fusion protein, modified type hTim4-187-Fc, SEQ ID NO: 59 (Homo sapiens, UniProt Q96H15); test: Dot blotting, binding specificity of hTim4-187-Fc to various phospholipids; settings: PE, PC, PI and PS spotted, 1 μL of 100 pmol/μL each; fusion protein 0.5 μg/mL, room temperature 2 hours
T5 construct: replaced N-terminal leader; Freestyle 293F, purified
Method: Dot blotting was carried out by the following procedure to evaluate the binding capacity of the fusion protein of the present invention to various phospholipids.
On a PVDF membrane (GE Healthcare), 1 μL each of 100 pmol/μL 3-sn-phosphatidylethanolamine (PE), L-α-phosphatidylcholine (PC), L-α-phosphatidylinositol (PI), and 3-sn-phosphatidyl-L-serine (Sigma Aldrich) were spotted, and the resulting membrane was incubated in 2 mL of a blocking buffer (5% skim milk—PBS-T) at room temperature for 1 hour, to perform blocking. To the blocking buffer in each well, hTim4-187-Fc was added at a final concentration of 0.5 μg/mL, and incubation was carried out at room temperature for 2 hours. Thereafter, the PVDF membrane was washed 5 times with 5 mL of PBS-T, and incubated at room temperature for 2 hours in an HRP-conjugated anti-human IgG-Fc antibody (Bethyl) solution which was 10000-fold diluted with 2 mL of the blocking buffer. Subsequently, the membrane was washed 5 times with 5 mL of PBS-T, followed by chemiluminescence using ECL prime (GE healthcare) and detection using LAS 3000 (Fujifilm).

[6] = target: T6, human Tim4 IgG Fc fusion protein, modified type hTim4-181-Fc (52 mucin domain residues), SEQ ID NO: 63 (Homo sapiens, UniProt Q96H15); test: ELISA, binding capacity of hTim4-181-Fc to PS; settings: n = 2
T6 construct: made in house; host or cells: Freestyle 293F cells
Text: as §2, §3, §4

[7] = target: T5, human Tim4 IgG Fc fusion protein, modified type hTim4-187-Fc, SEQ ID NO: 59; test: Dot blotting, binding of hTim4-187-Fc to PS; settings: 0.15 μg of PS spotted; fusion protein 0.5 μg/mL, 4° C. overnight
Method: as §1

[8] = target: T7, human Tim4 IgG Fc fusion protein, modified type hTim4-240-Fc, SEQ ID NO: 51 (Homo sapiens, UniProt Q96H15, V240A); test: Dot blotting, binding of hTim4-240-Fc to PS; settings: 0.15 μg of PS spotted; fusion protein 0.5 μg/mL, 4° C. overnight
T7 construct: replaced N-terminal leader; Freestyle 293F, purified
Method: as §1

[9] = target: T8, human Tim4 IgG Fc fusion protein, modified type hTim4-Δ131-187Δ241-310-Fc (58 mucin domain residues), SEQ ID NO: 57 (Homo sapiens, UniProt Q96H15, DEL135-187/V240A); test: ELISA, binding capacity of hTim4-Δ131-187Δ241-310-Fc to PS; settings: n = 2
T8 construct: made in house; host or cells: Freestyle 293F cells
Text: as §2, §3, §4

[10] = target: T9, human Tim4 IgG Fc fusion protein, modified type hTim4-175-Fc (46 mucin domain residues), SEQ ID NO: 67 (Homo sapiens, UniProt Q96H15); test: ELISA, binding capacity of hTim4-175-Fc to PS; settings: n = 2
T9 construct: made in house; host or cells: Freestyle 293F cells
Text: as §2, §3, §4

[11] = target: T10, human Tim4 IgG Fc fusion protein, modified type hTim4-184-Fc (55 mucin domain residues), SEQ ID NO: 61 (Homo sapiens, UniProt Q96H15); test: ELISA, binding capacity of hTim4-184-Fc to PS; settings: n = 2
T10 construct: made in house; host or cells: Freestyle 293F cells
Text: as §2, §3, §4

[12] = target: T11, human Tim4 IgG Fc fusion protein, modified type hTim4-187-Fc (58 mucin domain residues), SEQ ID NO: 59 (Homo sapiens, UniProt Q96H15); test: ELISA, binding capacity of hTim4-187-Fc to PS; settings: n = 2
T11 construct: made in house; host or cells: Freestyle 293F cells
Text: as §2, §3, §4

[13] = target: T12, human Tim4 IgG Fc fusion protein, modified type hTim4-178-Fc, SEQ ID NO: 65 (Homo sapiens, UniProt Q96H15); test: Dot blotting, binding of hTim4-178-Fc to PS; settings: 0.15 μg of PS spotted; fusion protein 0.5 μg/mL, 4° C. overnight
T12 construct: replaced N-terminal leader; Freestyle 293F, purified
Method: as §1

[14] = target: T13, human Tim4 IgG Fc fusion protein, modified type hTim4-240-Fc (111 mucin domain residues), SEQ ID NO: 51 (Homo sapiens, UniProt Q96H15, V240A); test: ELISA, binding capacity of hTim4-240-Fc to PS; settings: n = 2
T13 construct: made in house; host or cells: Freestyle 293F cells
Text: as §2, §3, §4

[15] = target: T14, human Tim4 IgG Fc fusion protein, modified type hTim4-184-Fc, SEQ ID NO: 61 (Homo sapiens, UniProt Q96H15); test: Dot blotting, binding of hTim4-184-Fc to PS; settings: 0.15 μg of PS spotted; fusion protein 0.5 μg/mL, 4° C. overnight
T14 construct: replaced N-terminal leader; Freestyle 293F, purified
Method: as §1

[16] = target: T15, human Tim4 wild-type IgG Fc fusion protein hTim4-Fc (181 mucin domain residues), SEQ ID NO: 49 (Homo sapiens, UniProt Q96H15, D300G/G301W/M299D/Q298T/V240A); test: ELISA, binding capacity of hTim4-Fc to PS; settings: n = 2
T15 construct: made in house; host or cells: Freestyle 293F cells
Method: Using a vector encoding the hTim4 sequence (pCMV6-XL5 Homo sapiens T-cell immunoglobulin and mucin domain containing 4, transcript variant 1 as transfection-ready DNA, OriGene Technologies) as a template, and a primer containing an EcoRV restriction site at 5′-end (SEQ ID NO:22) and a primer containing a BglII restriction site at 3′-end (SEQ ID NO:23), PCR was performed. The obtained PCR product and pFUSE-hIgG1e3-Fc2 (InvivoGen) encoding the human IgG-Fc region were each digested with EcoRV and BglII, and the resulting digestion products were ligated to each other. E. coli (JM109, Takara Bio Inc.) was transformed with the resulting ligation product, and colonies were obtained. From the obtained colonies, plasmids were extracted, and the DNA sequences of the plasmids were analyzed. A colony having the hTim4 sequence inserted therein was subjected to large-scale culture, to obtain a vector. […]
as §3

[17] = test system: A431 tumor; test: Diagnosis of apoptosis in target tissue (TUNEL and activated caspase 3 staining of tumor sections); assay type: in vivo, mouse (Balb/c-Ajcl-nu/nu); settings: MMC 5 mg/6.25 mL/kg via tail vein, one, 3 and 5 days before the RI-labeled product
Text: Male Balb/c-Ajcl-nu/nu mice of 5 to 6 weeks old (CLEA Japan, Inc.) were provided, and divided into two groups (the MMC administration group and the vehicle group; 3 individuals per group). A431 cells were inoculated into the left femoral region of each mouse, 2 to 3 weeks before the PET experiment for the MMC administration group, or 10 days to 2 weeks before the PET experiment for the vehicle group. Individuals of which the tumor size became […] on the day before the administration of the RI-labeled product were subjected to the PET experiment. One day, 3 days, and 5 days before the administration of the RI-labeled product, MMC (mitomycin C) was administered via the tail vein at an amount of 5 mg/6.25 mL/kg for the MMC administration group, and physiological saline was administered at amount of 6.25 mL/kg for the vehicle group.
After the completion of the PET experiment, the tumor was isolated from each mouse, and frozen sections were prepared. The prepared frozen sections were fixed with cold methanol, and stored at −20° C. until use. The sections were used for the experiment within 3 to 5 days after the dissection.
The frozen sections were subjected to blocking using Protein Block, Serum-Free (Dako), and then subjected to TUNEL staining using DeadEnd Fluorometric TUNEL System (Promega). […]

[18] = 10-fold dilution series of the fusion protein on PS-coated plate, read-out: EC50 ± SE (50% effective concentration)

T15 sequence (Q96H15 with tags, fused parts or gaps V240A/Q298T/M299D/D300G/G301W): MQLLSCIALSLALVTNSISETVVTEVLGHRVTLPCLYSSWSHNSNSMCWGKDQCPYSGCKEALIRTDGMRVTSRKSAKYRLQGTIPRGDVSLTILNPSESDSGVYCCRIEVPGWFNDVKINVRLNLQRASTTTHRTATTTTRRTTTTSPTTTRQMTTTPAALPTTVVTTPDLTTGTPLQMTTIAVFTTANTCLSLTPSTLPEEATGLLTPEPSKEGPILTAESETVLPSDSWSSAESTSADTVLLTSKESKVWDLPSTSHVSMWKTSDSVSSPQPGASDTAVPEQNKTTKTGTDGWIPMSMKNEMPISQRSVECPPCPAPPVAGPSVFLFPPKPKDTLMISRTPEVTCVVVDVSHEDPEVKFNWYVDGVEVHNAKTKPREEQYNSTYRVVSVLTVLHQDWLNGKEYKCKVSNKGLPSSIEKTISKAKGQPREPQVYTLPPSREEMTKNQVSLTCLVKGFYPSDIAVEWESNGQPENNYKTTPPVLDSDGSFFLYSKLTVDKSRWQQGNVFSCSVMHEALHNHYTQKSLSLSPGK
T6 sequence (Q96H15 with tags, fused parts or gaps): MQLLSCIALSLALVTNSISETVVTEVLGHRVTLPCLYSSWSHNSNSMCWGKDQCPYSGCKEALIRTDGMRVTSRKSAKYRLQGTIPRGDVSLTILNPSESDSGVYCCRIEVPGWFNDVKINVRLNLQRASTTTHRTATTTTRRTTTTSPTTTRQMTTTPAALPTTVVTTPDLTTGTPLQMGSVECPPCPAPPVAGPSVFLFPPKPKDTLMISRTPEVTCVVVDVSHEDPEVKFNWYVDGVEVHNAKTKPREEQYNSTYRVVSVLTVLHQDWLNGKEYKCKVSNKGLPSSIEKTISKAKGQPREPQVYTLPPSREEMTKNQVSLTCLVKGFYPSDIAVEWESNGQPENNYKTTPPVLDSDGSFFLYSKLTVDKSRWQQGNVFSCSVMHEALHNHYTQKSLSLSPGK
T9 sequence (Q96H15 with tags, fused parts or gaps): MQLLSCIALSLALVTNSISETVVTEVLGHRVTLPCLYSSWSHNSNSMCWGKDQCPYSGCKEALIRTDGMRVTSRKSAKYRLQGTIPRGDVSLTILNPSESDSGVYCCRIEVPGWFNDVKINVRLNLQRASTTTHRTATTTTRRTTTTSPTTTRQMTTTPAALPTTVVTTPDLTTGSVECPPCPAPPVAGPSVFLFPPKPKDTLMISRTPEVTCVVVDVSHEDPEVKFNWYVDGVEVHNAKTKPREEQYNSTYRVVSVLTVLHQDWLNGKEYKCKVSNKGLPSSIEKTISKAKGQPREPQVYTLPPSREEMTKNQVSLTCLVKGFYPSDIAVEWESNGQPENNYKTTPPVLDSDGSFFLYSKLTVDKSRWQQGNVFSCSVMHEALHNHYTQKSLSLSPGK
T8 sequence (Q96H15 with tags, fused parts or gaps DEL135-187/V240A limits assumed): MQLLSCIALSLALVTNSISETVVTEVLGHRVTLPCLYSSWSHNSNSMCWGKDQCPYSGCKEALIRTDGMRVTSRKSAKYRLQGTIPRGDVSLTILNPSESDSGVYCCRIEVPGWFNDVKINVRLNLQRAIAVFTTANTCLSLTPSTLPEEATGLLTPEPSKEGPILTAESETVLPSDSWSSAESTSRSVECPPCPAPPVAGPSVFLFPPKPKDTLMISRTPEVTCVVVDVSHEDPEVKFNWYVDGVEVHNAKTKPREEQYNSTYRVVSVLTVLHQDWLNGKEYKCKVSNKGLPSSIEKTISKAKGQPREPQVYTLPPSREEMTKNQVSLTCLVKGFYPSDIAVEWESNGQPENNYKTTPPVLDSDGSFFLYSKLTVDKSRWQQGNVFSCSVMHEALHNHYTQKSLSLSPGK
T5 sequence (Q96H15 with tags, fused parts or gaps): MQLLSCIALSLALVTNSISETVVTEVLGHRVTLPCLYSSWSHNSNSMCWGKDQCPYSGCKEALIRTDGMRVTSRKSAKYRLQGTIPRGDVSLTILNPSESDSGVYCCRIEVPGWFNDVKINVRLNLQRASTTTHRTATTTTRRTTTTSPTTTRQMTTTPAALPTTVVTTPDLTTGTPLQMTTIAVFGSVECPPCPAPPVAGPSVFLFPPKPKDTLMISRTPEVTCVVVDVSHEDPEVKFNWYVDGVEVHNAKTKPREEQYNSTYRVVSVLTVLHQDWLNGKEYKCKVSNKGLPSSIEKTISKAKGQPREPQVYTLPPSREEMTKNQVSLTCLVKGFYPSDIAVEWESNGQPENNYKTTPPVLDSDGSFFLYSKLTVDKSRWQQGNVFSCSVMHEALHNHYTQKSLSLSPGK
T13 sequence (Q96H15 with tags, fused parts or gaps V240A): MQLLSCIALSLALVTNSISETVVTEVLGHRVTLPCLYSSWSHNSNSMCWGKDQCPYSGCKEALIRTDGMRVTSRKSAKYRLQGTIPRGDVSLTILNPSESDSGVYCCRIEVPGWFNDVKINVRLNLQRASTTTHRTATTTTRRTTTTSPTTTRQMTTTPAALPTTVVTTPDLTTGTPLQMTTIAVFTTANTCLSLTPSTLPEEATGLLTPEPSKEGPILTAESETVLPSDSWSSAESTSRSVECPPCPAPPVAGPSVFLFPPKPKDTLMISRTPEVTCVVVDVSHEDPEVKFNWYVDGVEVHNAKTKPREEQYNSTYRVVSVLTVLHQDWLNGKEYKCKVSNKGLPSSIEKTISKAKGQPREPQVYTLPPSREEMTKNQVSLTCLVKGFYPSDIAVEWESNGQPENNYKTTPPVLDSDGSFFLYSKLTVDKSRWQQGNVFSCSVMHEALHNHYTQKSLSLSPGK
T3 sequence (Q96H15 with tags, fused parts or gaps): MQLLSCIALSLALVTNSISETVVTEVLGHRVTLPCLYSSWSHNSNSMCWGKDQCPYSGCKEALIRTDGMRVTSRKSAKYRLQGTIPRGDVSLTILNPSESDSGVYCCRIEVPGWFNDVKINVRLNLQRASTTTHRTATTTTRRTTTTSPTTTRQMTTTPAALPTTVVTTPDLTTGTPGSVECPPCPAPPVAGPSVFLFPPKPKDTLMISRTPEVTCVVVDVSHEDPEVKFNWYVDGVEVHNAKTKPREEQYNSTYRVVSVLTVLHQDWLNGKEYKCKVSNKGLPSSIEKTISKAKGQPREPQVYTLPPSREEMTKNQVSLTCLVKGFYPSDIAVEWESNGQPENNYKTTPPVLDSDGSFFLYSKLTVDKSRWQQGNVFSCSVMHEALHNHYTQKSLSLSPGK
T4 sequence (Q96H15 with tags, fused parts or gaps DEL135-260 limits assumed): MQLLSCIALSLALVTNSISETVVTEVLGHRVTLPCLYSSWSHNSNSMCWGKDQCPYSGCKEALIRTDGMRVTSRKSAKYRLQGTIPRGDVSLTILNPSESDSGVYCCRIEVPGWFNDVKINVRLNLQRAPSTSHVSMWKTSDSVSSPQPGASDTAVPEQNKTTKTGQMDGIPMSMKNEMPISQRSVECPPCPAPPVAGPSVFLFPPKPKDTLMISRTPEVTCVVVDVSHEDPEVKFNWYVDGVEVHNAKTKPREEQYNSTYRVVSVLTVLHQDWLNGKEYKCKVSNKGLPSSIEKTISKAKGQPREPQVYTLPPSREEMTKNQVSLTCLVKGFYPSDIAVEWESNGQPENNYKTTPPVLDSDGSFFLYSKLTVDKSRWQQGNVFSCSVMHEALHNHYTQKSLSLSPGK
T10 sequence (Q96H15 with tags, fused parts or gaps): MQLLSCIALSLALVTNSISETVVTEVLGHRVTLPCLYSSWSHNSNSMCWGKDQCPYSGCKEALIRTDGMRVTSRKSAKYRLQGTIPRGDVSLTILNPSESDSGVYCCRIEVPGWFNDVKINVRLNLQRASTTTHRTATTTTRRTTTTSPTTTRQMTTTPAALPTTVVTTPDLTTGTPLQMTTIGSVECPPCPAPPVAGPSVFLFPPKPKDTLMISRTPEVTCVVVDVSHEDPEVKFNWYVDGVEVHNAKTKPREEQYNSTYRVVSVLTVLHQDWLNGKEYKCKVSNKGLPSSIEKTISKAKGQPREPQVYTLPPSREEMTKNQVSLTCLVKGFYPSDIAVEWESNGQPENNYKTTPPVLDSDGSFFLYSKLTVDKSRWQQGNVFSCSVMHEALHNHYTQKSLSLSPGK
T7 sequence (Q96H15 with tags, fused parts or gaps V240A): as the sequence (Q96H15 with tags, fused parts or gaps V240A) above

3-sn-phosphatidyl-L-serine [PS]
binding to PS [1]: binding to PS was confirmed
binding to PS [2]: binding to PS was confirmed
EC50 [3, 18]: 67 ± 54.8 nM
Bmax ± SE (maximum binding amount) ([3]; PS-coated plate): 0.63 ± 0.22 Abs 450 nm
EC50 [4, 18]: 148 ± 85.8 nM
Bmax ± SE (maximum binding amount) ([4]; PS-coated plate): 0.07 ± 0.02 Abs 450 nm
binding specificity to PS among phospholipids [5]: binds to only PS
EC50 [6, 18]: 47.5 ± 6.2 nM
Bmax ± SE (maximum binding amount) ([6]; PS-coated plate): 0.74 ± 0.04 Abs 450 nm
binding to PS [7]: binding to PS was confirmed
binding to PS [8]: binding to PS was confirmed
EC50 [9, 18]: 132 ± 305 nM
Bmax ± SE (maximum binding amount) ([9]; PS-coated plate): 0.02 ± 0.03 Abs 450 nm
EC50 [10, 18]: 76.2 ± 19.5 nM
Bmax ± SE (maximum binding amount) ([10]; PS-coated plate): 0.77 ± 0.08 Abs 450 nm
EC50 [11, 18]: 100 ± 45.2 nM
Bmax ± SE (maximum binding amount) ([11]; PS-coated plate): 0.84 ± 0.17 Abs 450 nm
EC50 [12, 18]: 62.8 ± 20.2 nM
Bmax ± SE (maximum binding amount) ([12]; PS-coated plate): 1.02 ± 0.14 Abs 450 nm
binding to PS [13]: binding to PS was confirmed
EC50 [14, 18]: 7.1 ± 14.9 nM
Bmax ± SE (maximum binding amount) ([14]; PS-coated plate): 0.01 ± 0.01 Abs 450 nm
binding to PS [15]: binding to PS was confirmed
EC50 [16, 18]: 0.2 nM
Bmax ± SE (maximum binding amount) ([16]; PS-coated plate): 0.00 ± 0.00 Abs 450 nm

CO[C@@]12[C@H](COC(N)=O)C3=C(C(=O)C(C)=C(N)C3=O)N1C[C@@H]1N[C@@H]12 [MMC, mitomycin C]
occurrence of apoptosis in the tumor [17]: occurrence of apoptosis in the tumor of the MMC-administered individuals was confirmed
